In the assay the target is PIK3CB;PIK3CG;PIK3CD;PIK3CA (human) (UniProt P48736). Nature of the assay: Enzyme Assay.

Broadly, the IC50 is the concentration that inhibits the measured activity by half.

Compound `O=C(c1nn([C@H]2CCCN(CCN3CCOCC3)C2)c2c1CS(=O)(=O)c1c(F)cccc1-2)N1CCOCC1` gave an IC50 of 0.016 µM. Consider `CC(C)CCOC1CCN(Cc2cccc(-n3nc(C(=O)N4CCOCC4)c4c3-c3ccccc3S(=O)(=O)C4)c2)C1` (configuration not stated), for which the IC50 amounted to 0.389 µM.

As for `O=C(c1nn(-c2ccc(CN3CCOCC3)cc2)c2c1CS(=O)(=O)c1cc(F)ccc1-2)N1CCOCC1`, the IC50 came out at 0.202 µM.

As for `Cc1nnc(-c2cccc(-n3nc(C(=O)N4CCOCC4)c4c3-c3ccccc3S(=O)(=O)C4)c2)s1`, the half-maximal inhibitory concentration (IC50) is 0.661 µM. For `O=C(c1nn(C2CCCN(CCC3CCOCC3)C2)c2c1CS(=O)(=O)c1c(Cl)cccc1-2)N1CCOCC1` (configuration not stated) the value was 0.038 µM. Turning to `O=C(c1nn(C2CCCCC2)c2c1CS(=O)(=O)c1ccccc1-2)N1CCOCC1`, the IC50 turned out to be 0.136 µM. On to `Cn1nc(C(=O)N2CCOCC2)c2c1-c1cc(Br)ccc1S(=O)(=O)C2`, for which the half-maximal inhibitory concentration (IC50) amounted to 1.04 µM. Then `O=C(c1nn([C@H]2CCCN(c3cccnc3)C2)c2c1CS(=O)(=O)c1ccccc1-2)N1CCOCC1`, with 0.048 µM; and `COC1CCN(CCN2CCC[C@H](n3nc(C(=O)N4CCOCC4)c4c3-c3ccccc3S(=O)(=O)C4)C2)C1` (some centres not stated), with 0.025 µM. Compound `COCCN(C)CCN1CCC[C@H](n2nc(C(=O)N3CCOCC3)c3c2-c2ccccc2S(=O)(=O)C3)C1` registered a 50% inhibitory concentration (IC50) of 0.045 µM.

Compound `O=C(c1nn(C2CCN(CCN3CC(F)(F)C3)C2)c2c1CS(=O)(=O)c1ccccc1-2)N1CCOCC1` (configuration not stated) yielded an IC50 of 0.156 µM.

With `O=C(c1nn(-c2cccc(-c3cnn(CCN4CCOCC4)c3)c2)c2c1CS(=O)(=O)c1ccccc1-2)N1CCOCC1`, the IC50 came out at 0.338 µM. For `O=C(c1nn(C2CCCN(C3CCOCC3)C2)c2c1CS(=O)(=O)c1ccccc1-2)N1CCOCC1` (configuration not stated) the value was 0.254 µM; for `COCCN1CCC[C@H](n2nc(C(=O)N3CCOCC3)c3c2-c2cccc(OC)c2S(=O)(=O)C3)C1`, 0.128 µM; for `O=C(c1nn(C2CCCN(c3ccccc3)C2)c2c1CS(=O)(=O)c1ccccc1-2)N1CCOCC1` (configuration not stated), 0.468 µM. `O=C(c1nn(-c2cccc(Nc3ccccc3)c2)c2c1CS(=O)(=O)c1ccccc1-2)N1CCOCC1` registered a 50% inhibitory concentration (IC50) of 2.69 µM.

`O=C(c1nn(C2CCN(C3CCOCC3)C2)c2c1CS(=O)(=O)c1ccccc1-2)N1CCOCC1` (configuration not stated) came in with a half-maximal inhibitory concentration (IC50) of 0.077 µM.

Turning to `CC1(C)CCCC(n2nc(C(=O)N3CCOCC3)c3c2-c2ccccc2S(=O)(=O)C3)C1` (configuration not stated), the IC50 turned out to be 0.498 µM. Then `O=C(c1nn(C2CCCCC2)c2c1CS(=O)(=O)c1cc(Br)ccc1-2)N1CCOCC1`, with 0.691 µM.

As to `CC(C)(C)OC(=O)N1CCC(n2nc(C(=O)N3CCOCC3)c3c2-c2ccccc2S(=O)(=O)C3)C1` (configuration not stated), the IC50 was 1.2 µM. For `O=C(c1nn(C2CCCN(CCN3CCOCC3)C2)c2c1CS(=O)(=O)c1c(F)cccc1-2)N1CCOCC1` (configuration not stated) the value was 0.016 µM; for `O=C(c1nn(CCc2ccccn2)c2c1CS(=O)(=O)c1ccccc1-2)N1CCOCC1`, 1.92 µM. Then `O=C(c1nn(-c2ccc(CN3CC(F)(F)C3)cc2)c2c1CS(=O)(=O)c1ccccc1-2)N1CCOCC1`, with 0.395 µM; and `O=C(c1nn(-c2cccc(CN3CCC(O)CC3)c2)c2c1CS(=O)(=O)c1ccccc1-2)N1CCOCC1`, with 0.573 µM; and `O=C(c1nn(-c2ccc3c(c2)OCCO3)c2c1CS(=O)(=O)c1ccccc1-2)N1CCOCC1`, with 0.67 µM. Then `O=C(c1nn(-c2cccc(OCCn3cccn3)c2)c2c1CS(=O)(=O)c1ccccc1-2)N1CCOCC1`, with 0.445 µM; and `O=C(c1nn(C2CCCCC2)c2c1CS(=O)(=O)c1ncccc1-2)N1CCOCC1`, with 0.437 µM. The compound `O=C(c1nn(Cc2ccccc2)c2c1CS(=O)(=O)c1ccccc1-2)N1CCOCC1` had an IC50 of 1.19 µM. With `COc1ccc2c(c1)S(=O)(=O)Cc1c(C(=O)N3CCOCC3)nn([C@H]3CCCN(CCN4CCOCC4)C3)c1-2`, the half-inhibitory concentration (IC50) is 0.024 µM. Then `O=C(c1nn(C2CCCN(CCN3CCOCC3)C2)c2c1CS(=O)(=O)c1c(Cl)cccc1-2)N1CCOCC1` (configuration not stated), with 0.12 µM; and `O=C(c1nn(-c2ccccc2)c2c1NS(=O)(=O)c1ccccc1-2)N1CCOCC1`, with 5.5 µM. For `O=C(c1nn(C2CCCN(CCn3ccnc3)C2)c2c1CS(=O)(=O)c1ccccc1-2)N1CCOCC1` (configuration not stated) the value was 0.052 µM; for `CN(C)CC(C)(C)c1ccc(-n2nc(C(=O)N3CCOCC3)c3c2-c2ccccc2S(=O)(=O)C3)cc1`, 0.159 µM. On to `O=C(c1nn(C2CCCN(C3COC3)C2)c2c1CS(=O)(=O)c1ccccc1-2)N1CCOCC1` (configuration not stated), for which the concentration for half-maximal inhibition (IC50) came out at 0.067 µM.

As to `O=C(c1cccc(-n2nc(C(=O)N3CCOCC3)c3c2-c2ccccc2S(=O)(=O)C3)c1)N1CCCCC1`, the IC50 came out at 0.182 µM.

Consider `CCc1nc(-c2cccc(-n3nc(C(=O)N4CCOCC4)c4c3-c3ccccc3S(=O)(=O)C4)c2)no1`, for which the IC50 amounted to 2.59 µM. For `CC(C)CCOC1CCN(Cc2ccc(-n3nc(C(=O)N4CCOCC4)c4c3-c3ccccc3S(=O)(=O)C4)cc2)C1` (configuration not stated) the value was 0.167 µM. Then `O=C(c1nn(C2CN3CCC2CC3)c2c1CS(=O)(=O)c1ccccc1-2)N1CCOCC1` (configuration not stated), with 10.2 µM; and `O=C(CC1CCCCC1)N1CCC(n2nc(C(=O)N3CCOCC3)c3c2-c2ccccc2S(=O)(=O)C3)C1` (configuration not stated), with 0.711 µM; and `COc1ccc2c(c1)S(=O)(=O)Cc1c(C(=O)N3CCOCC3)nn(C)c1-2`, with 0.422 µM. For the compound `O=C(c1nn([C@H]2CCCN(CCN3CC(F)(F)C3)C2)c2c1CS(=O)(=O)c1c(F)cccc1-2)N1CCOCC1`, the IC50 stood at 0.022 µM. `CN(C)S(=O)(=O)c1cccc(-n2nc(C(=O)N3CCOCC3)c3c2-c2ccccc2S(=O)(=O)C3)c1` showed an IC50 of 0.641 µM.

With `O=C(CC1CCOCC1)N1CCC(n2nc(C(=O)N3CCOCC3)c3c2-c2ccccc2S(=O)(=O)C3)C1` (configuration not stated), the IC50 came to 0.733 µM. For `Cc1ccc2c(c1)S(=O)(=O)Cc1c(C(=O)N3CCOCC3)nn(-c3ccccc3)c1-2` the value was 1.84 µM. For `O=C(c1nn([C@@H]2CCCN(CCN3CCOCC3)C2)c2c1CS(=O)(=O)c1ccccc1-2)N1CCOCC1` the value was 1.28 µM. Regarding `O=C(NC1CCCCC1)N1CCC(n2nc(C(=O)N3CCOCC3)c3c2-c2ccccc2S(=O)(=O)C3)C1` (configuration not stated), the IC50 was 0.875 µM. Compound `O=C(c1nn(-c2ccc(N3CCOCC3)cc2)c2c1CS(=O)(=O)c1ccccc1-2)N1CCOCC1` displayed a half-maximal inhibitory concentration (IC50) of 3.94 µM. The compound `CN1CCN(C(=O)c2cccc(-n3nc(C(=O)N4CCOCC4)c4c3-c3ccccc3S(=O)(=O)C4)c2)CC1` came in with an IC50 of 0.253 µM.

`O=C(c1nn([C@H]2CCCN(CCC3CCOCC3)C2)c2c1CS(=O)(=O)c1ncccc1-2)N1CCOCC1` returned a half-inhibitory concentration (IC50) of 0.016 µM. Turning to `C[C@@H]1CN(CCN2CCC[C@H](n3nc(C(=O)N4CCOCC4)c4c3-c3ccccc3S(=O)(=O)C4)C2)C[C@H](C)O1`, the half-maximal inhibitory concentration (IC50) was determined as 0.065 µM. Regarding `O=C(c1nn([C@H]2CCCN(CCN3CC[C@@H](F)C3)C2)c2c1CS(=O)(=O)c1ccccc1-2)N1CCOCC1`, the IC50 came out at 0.032 µM. For `Cc1ccc(-n2nc(C(=O)N3CCOCC3)c3c2-c2ccccc2S(=O)(=O)C3)cc1` the value was 0.69 µM; for `O=C(c1nn(C2CCCN(CCN3CCC(F)CC3)C2)c2c1CS(=O)(=O)c1ccccc1-2)N1CCOCC1` (configuration not stated), 0.034 µM; for `O=C(c1nn(-c2ccc(CN3CCOCC3)cc2)c2c1CS(=O)(=O)c1ccc(F)cc1-2)N1CCOCC1`, 0.555 µM. For `O=C(c1nn(-c2cccc(CN3CCC(F)CC3)c2)c2c1CS(=O)(=O)c1ccccc1-2)N1CCOCC1`, the half-inhibitory concentration (IC50) turned out to be 0.437 µM. The compound `O=C(c1nn([C@H]2CCCNC2)c2c1CS(=O)(=O)c1ccccc1-2)N1CCOCC1` displayed an IC50 of 1.06 µM. For `O=C(c1nn(-c2ccc(CN3CCC(O)C3)cc2)c2c1CS(=O)(=O)c1ccccc1-2)N1CCOCC1` (configuration not stated) the value was 0.859 µM; for `O=C(c1cccc(-n2nc(C(=O)N3CCOCC3)c3c2-c2ccccc2S(=O)(=O)C3)c1)N1CCCC(O)C1` (configuration not stated), 0.348 µM. For `O=C(CCN1CCC[C@H](n2nc(C(=O)N3CCOCC3)c3c2-c2ccccc2S(=O)(=O)C3)C1)N1CCC(F)(F)C1` the value was 0.041 µM; for `O=C(c1nn(C2CCCN(CCN3CCCC(F)(F)C3)C2)c2c1CS(=O)(=O)c1ccccc1-2)N1CCOCC1` (configuration not stated), 0.083 µM; for `CN(C)CCCn1nc(C(=O)N2CCOCC2)c2c1-c1ccccc1S(=O)(=O)C2`, 3.11 µM.

Consider `COc1ccc(-n2nc(C(=O)N3CCOCC3)c3c2-c2ccccc2S(=O)(=O)C3)cc1`, for which the IC50 is 0.749 µM. Then `CC(C)Cn1nc(C(=O)N2CCOCC2)c2c1-c1ccccc1S(=O)(=O)C2`, with 0.96 µM; and `O=C(c1nn([C@H]2CCCN(CCN3CCOCC3)C2)c2c1CS(=O)(=O)c1c(Cl)cccc1-2)N1CCOCC1`, with 0.03 µM; and `O=C(c1nn(C2CCN(CCC3CCOCC3)C2)c2c1CS(=O)(=O)c1ccccc1-2)N1CCOCC1` (configuration not stated), with 0.28 µM.

For the compound `CS(=O)(=O)Nc1cccc(-n2nc(C(=O)N3CCOCC3)c3c2-c2ccccc2S(=O)(=O)C3)c1`, the half-maximal inhibitory concentration (IC50) turned out to be 1.78 µM. For `O=C(c1nn(C2CCCN(CCC3CCOCC3)C2)c2c1CS(=O)(=O)c1ncccc1-2)N1CCOCC1` (configuration not stated) the value was 0.061 µM; for `O=C(c1nn([C@@H]2CCCN(CCN3CCOCC3)C2)c2c1CS(=O)(=O)c1c(Cl)cccc1-2)N1CCOCC1`, 5.23 µM. As for `COc1cccc(-n2nc(C(=O)N3CCOCC3)c3c2-c2ccccc2S(=O)(=O)C3)c1`, the concentration for half-maximal inhibition (IC50) is 1.32 µM. For `O=C(c1nn([C@H]2CCN(C3CCOCC3)C2)c2c1CS(=O)(=O)c1c(F)cccc1-2)N1CCOCC1` the value was 0.052 µM; for `O=C(c1nn(C2CCN(C3CCOCC3)C2)c2c1CS(=O)(=O)c1c(F)cccc1-2)N1CCOCC1` (configuration not stated), 0.029 µM; for `O=C(c1nn(C2CCN(CCN3CCOCC3)C2)c2c1CS(=O)(=O)c1ccccc1-2)N1CCOCC1` (configuration not stated), 0.192 µM. Then `CS(=O)(=O)c1cccc(-n2nc(C(=O)N3CCOCC3)c3c2-c2ccccc2S(=O)(=O)C3)c1`, with 2.56 µM; and `Cc1ccccc1-c1cccc(-n2nc(C(=O)N3CCOCC3)c3c2-c2ccccc2S(=O)(=O)C3)c1`, with 1.07 µM; and `O=C(c1nn([C@H]2CCN(C3CCOCC3)C2)c2c1CS(=O)(=O)c1ccccc1-2)N1CCOCC1`, with 1.44 µM.

`CN(C)CCN1CCCC(n2nc(C(=O)N3CCOCC3)c3c2-c2ccccc2S(=O)(=O)C3)C1` (configuration not stated): the IC50 is 0.072 µM.

With `CC1CC(C)CC(n2nc(C(=O)N3CCOCC3)c3c2-c2ccccc2S(=O)(=O)C3)C1` (configuration not stated), the IC50 stood at 7.96 µM.

The values above are taken from the Kinase Knowledgebase extract (Sharma et al. 2016).
